Here are results for 21 compounds from ChEMBL document CHEMBL1140493, “Quantitative structure-activity relationship studies for prediction of antimicrobial activity of synthesized 2,4-hexadienoic acid derivatives” (Bioorg Med Chem Lett, 2007).

Converted amounts (≈) assume the structure as drawn.

One series concerns Aspergillus niger. The series is described as follows: Antifungal activity against Aspergillus niger after 7 days by twofold serial dilution method. It counts as functional. The note with it: 168 h, read-out: -Log MIC.
Series [1] is described as follows: Partition coefficient, log P of the compound. The note with it: octanol/water.
The next series relates to Bacillus subtilis. The series is described as follows: Antimicrobial activity against Bacillus subtilis after 24 hrs by twofold serial dilution method. The following applies: read-out: -Log MIC. It counts as functional.
A further series relates to Staphylococcus aureus. The series is described as follows: Antimicrobial activity against Staphylococcus aureus after 24 hrs by twofold serial dilution method. It counts as functional. The following applies: read-out: -Log MIC.
The subject of the next series is Escherichia coli. The series is described as follows: Antimicrobial activity against Escherichia coli after 24 hrs by twofold serial dilution method. It counts as functional. The following applies: read-out: -Log MIC.
In the next series the test system is Candida albicans. The series is described as follows: Antifungal activity against Candida albicans after 2 days by twofold serial dilution method. It counts as functional. The following applies: 48 h, read-out: -Log MIC.

In the case of `C/C=C/C=C/C(=O)OC(C)(C)C`, the MIC was determined as 74.1 µM (≈ 12.5 µg/mL) in the series with Aspergillus niger; 50.1 µM (≈ 8.43 µg/mL) in the series on Bacillus subtilis; 74.1 µM (≈ 12.5 µg/mL) in the series with Staphylococcus aureus; 83.2 µM (≈ 14 µg/mL) in the series with Escherichia coli; 53.7 µM (≈ 9.03 µg/mL) in the series with Candida albicans. In series [1], the log partition coefficient (logP) came to 2.33.

In the case of `C/C=C/C=C/C(=O)Nc1cccc([N+](=O)[O-])c1`, the MIC in the series on Aspergillus niger turned out to be 39.8 µM (≈ 9.24 µg/mL); in the series on Bacillus subtilis, 34.7 µM (≈ 8.06 µg/mL); in the series with Staphylococcus aureus, 50.1 µM (≈ 11.6 µg/mL); with Escherichia coli it was 60.3 µM (≈ 14 µg/mL); with Candida albicans, 47.9 µM (≈ 11.1 µg/mL). Moreover, in series [1], the logP amounted to 2.49.

`C/C=C/C=C/C(=O)OCc1ccccc1`: the MIC with Aspergillus niger is 70.8 µM (≈ 14.3 µg/mL); in the series with Bacillus subtilis, 69.2 µM (≈ 14 µg/mL); in the series with Staphylococcus aureus it was 63.1 µM (≈ 12.8 µg/mL); in the series on Escherichia coli, 100 µM (≈ 20.2 µg/mL); in the series on Candida albicans, 61.7 µM (≈ 12.5 µg/mL). Besides, in series [1], the logP turned out to be 3.28.

`C/C=C/C=C/C(=O)OC(C)C`: the MIC in the series with Aspergillus niger was 56.2 µM (≈ 8.67 µg/mL); in the series with Bacillus subtilis, 63.1 µM (≈ 9.73 µg/mL); in the series with Staphylococcus aureus, 81.3 µM (≈ 12.5 µg/mL); in the series on Candida albicans, 63.1 µM (≈ 9.73 µg/mL). In addition, the logP in series [1] amounted to 2.26.

As to `C/C=C/C=C/C(=O)OCCC`, the results for the MIC in the series on Aspergillus niger, in the series with Bacillus subtilis and in the series on Candida albicans were 81.3 µM (≈ 12.5 µg/mL), 70.8 µM (≈ 10.9 µg/mL) and 70.8 µM (≈ 10.9 µg/mL), respectively. Further, in series [1], the logP was found to be 2.31.

On to `C/C=C/C=C/C(=O)Nc1ccc(OC)cc1`, for which the MIC is 44.7 µM (≈ 9.71 µg/mL) with Aspergillus niger; 45.7 µM (≈ 9.93 µg/mL) in the series on Bacillus subtilis; 64.6 µM (≈ 14 µg/mL) with Staphylococcus aureus; 64.6 µM (≈ 14 µg/mL) in the series on Escherichia coli; 50.1 µM (≈ 10.9 µg/mL) with Candida albicans. The same compound had a logP in series [1] of 2.28.

Regarding `C/C=C/C=C/C(=O)NCC`, the MIC with Aspergillus niger was 89.1 µM (≈ 12.4 µg/mL); in the series with Bacillus subtilis, 89.1 µM (≈ 12.4 µg/mL); in the series on Candida albicans, 79.4 µM (≈ 11.1 µg/mL). For the same compound, the logP in series [1] is 1.19.

On to `C/C=C/C=C/C(=O)OCCC(C)C`, for which the MIC in the series with Aspergillus niger is 69.2 µM (≈ 12.6 µg/mL); with Bacillus subtilis, 55 µM (≈ 10 µg/mL); with Staphylococcus aureus it was 63.1 µM (≈ 11.5 µg/mL); with Escherichia coli, 100 µM (≈ 18.2 µg/mL); in the series with Candida albicans it was 69.2 µM (≈ 12.6 µg/mL). The logP in series [1] worked out at 3.04.

In the case of `O=C(O)c1cn(C2CC2)c2cc(N3CCNCC3)c(F)cc2c1=O` [CIPROFLOXACIN], the MIC in the series on Bacillus subtilis, in the series on Staphylococcus aureus and in the series on Escherichia coli was 0.468 µM (≈ 0.155 µg/mL) throughout.

With `C/C=C/C=C/C(=O)OCCCCCC`, the MIC with Aspergillus niger turned out to be 63.1 µM (≈ 12.4 µg/mL); in the series with Bacillus subtilis, 63.1 µM (≈ 12.4 µg/mL); with Staphylococcus aureus it was 100 µM (≈ 19.6 µg/mL); in the series on Candida albicans it was 51.3 µM (≈ 10.1 µg/mL). In series [1], the logP amounted to 3.5.

With `C/C=C/C=C/C(=O)NN`, the logP in series [1] turned out to be 0.59. The minimum inhibitory concentration (MIC) in the series on Bacillus subtilis and with Candida albicans was 100 µM (≈ 12.6 µg/mL) each time.

In the case of `C/C=C/C=C/C(=O)Nc1cccc(C)c1`, the MIC in the series with Aspergillus niger turned out to be 61.7 µM (≈ 12.4 µg/mL); with Bacillus subtilis, 47.9 µM (≈ 9.64 µg/mL); in the series with Staphylococcus aureus it was 61.7 µM (≈ 12.4 µg/mL); in the series on Escherichia coli, 79.4 µM (≈ 16 µg/mL); in the series with Candida albicans, 61.7 µM (≈ 12.4 µg/mL). The logP in series [1] stood at 3.

In the case of `C/C=C/C=C/C(=O)OCC`, the minimum inhibitory concentration (MIC) in the series with Aspergillus niger was found to be 100 µM (≈ 14 µg/mL); in the series on Bacillus subtilis it was 89.1 µM (≈ 12.5 µg/mL); in the series on Candida albicans it was 77.6 µM (≈ 10.9 µg/mL). This compound also returned a logP in series [1] of 1.84.

As to `C/C=C/C=C/C(=O)Nc1ccccc1OC`, the MIC with Aspergillus niger came out at 63.1 µM (≈ 13.7 µg/mL); with Bacillus subtilis it was 57.5 µM (≈ 12.5 µg/mL); in the series on Staphylococcus aureus it was 63.1 µM (≈ 13.7 µg/mL); with Escherichia coli it was 79.4 µM (≈ 17.3 µg/mL); with Candida albicans, 50.1 µM (≈ 10.9 µg/mL). The compound also came in with a logP in series [1] of 2.28.

Regarding `C/C=C/C=C/C(=O)O` [SORBIC ACID], the logP in series [1] worked out at 1.47.

`C/C=C/C=C/C(=O)OC` [METHYL SORBATE]: the MIC worked out at 100 µM (≈ 12.6 µg/mL) in the series on Aspergillus niger, 79.4 µM (≈ 10 µg/mL) in the series on Bacillus subtilis, 100 µM (≈ 12.6 µg/mL) in the series with Staphylococcus aureus and 79.4 µM (≈ 10 µg/mL) in the series on Candida albicans. Besides, the logP in series [1] was 1.5.

As to `C/C=C/C=C/C(=O)NCCO`, the logP in series [1] was 0.41. In addition, the MIC in the series with Bacillus subtilis was 91.2 µM (≈ 14.2 µg/mL); in the series on Candida albicans, 81.3 µM (≈ 12.6 µg/mL).

Take `C/C=C/C=C/C(=O)Nc1cccc(Cl)c1`: the MIC with Aspergillus niger came out at 39.8 µM (≈ 8.82 µg/mL); with Bacillus subtilis, 50.1 µM (≈ 11.1 µg/mL); with Staphylococcus aureus, 63.1 µM (≈ 14 µg/mL); in the series on Escherichia coli it was 72.4 µM (≈ 16.1 µg/mL); in the series on Candida albicans it was 50.1 µM (≈ 11.1 µg/mL). The compound also yielded a logP in series [1] of 3.05.

On to `C/C=C/C=C/C(=O)Nc1ccc(C)cc1`, for which the MIC with Aspergillus niger turned out to be 34.7 µM (≈ 6.98 µg/mL); in the series with Bacillus subtilis it was 55 µM (≈ 11.1 µg/mL); with Staphylococcus aureus, 61.7 µM (≈ 12.4 µg/mL); with Escherichia coli, 100 µM (≈ 20.1 µg/mL); in the series with Candida albicans it was 55 µM (≈ 11.1 µg/mL). Moreover, in series [1], the logP came out at 3.

Regarding `C/C=C/C=C/C(=O)Nc1ccccc1Cl`, the MIC worked out at 63.1 µM (≈ 14 µg/mL) in the series with Aspergillus niger; 56.2 µM (≈ 12.5 µg/mL) in the series with Bacillus subtilis; 70.8 µM (≈ 15.7 µg/mL) in the series on Staphylococcus aureus; 81.3 µM (≈ 18 µg/mL) in the series on Escherichia coli; 56.2 µM (≈ 12.5 µg/mL) in the series with Candida albicans. The compound further showed a logP in series [1] of 3.05.

`C/C=C/C=C/C(=O)OC(C)CC` (stereo unspecified): the values for the MIC in the series with Aspergillus niger, in the series with Bacillus subtilis and with Candida albicans were 83.2 µM (≈ 14 µg/mL), 74.1 µM (≈ 12.5 µg/mL) and 74.1 µM (≈ 12.5 µg/mL), respectively. In series [1], this compound registered a logP of 2.72.

A word on the MIC: it is the smallest concentration in the dilution series that meets the test's criterion for growth inhibition. As usually defined, the logP is the decadic logarithm of the partition coefficient of the neutral form, usually between octanol and water.
